The source of these data is ChEMBL document CHEMBL4177651, “RNA as a small molecule druggable target” (Bioorg Med Chem Lett, 2017).

Molecules are shown by their SMILES.

A short description of experiment [1]: Binding affinity to Aspergillus oryzae RNA TPP riboswitch after 40 hrs by SDS-PAGE analysis. The conditions noted are these: read-out: Kd(app).
Experiment [2] can be described thus: Binding affinity to 1A1 Bacillus subtilis 179 lysC RNA lysine riboswitch by probing analysis. The conditions noted are these: read-out: Kd(app).
Experiment [3] addresses Quadruplex DNA. Put plainly: Binding affinity to biotin-labeled c-Myc Pu22 G-quadruplex DNA (unknown origin) assessed as […] by surface plasmon resonance assay. It counts as nucleic-acid assay.
Experiment [4] can be described thus: Inhibition of [gamma-32P]ATP labelled (CUG)4 RNA (unknown origin) binding to recombinant His6-tagged MBNL1N (1 to 272 residues) after 10 -15 mins incubation in presence of tRNA by SDS-PAGE analysis.
Experiment [5] deals with Hepatitis C virus. Put plainly: Antiviral activity against Hepatitis C virus genotype 1b infected in BM4-5 FEO replicon cells after 48 hrs by bright-glo luciferase reporter gene assay. It counts as functional, organism-based, Hepacivirus hominis. The conditions noted are these: BM4-5, 48 h.
The nature of experiment [6]: Binding affinity to 1A1 Bacillus subtilis xpt-pbuX RNA guanine riboswitch. The conditions noted are these: read-out: Kd(app).
The nature of experiment [7]: Inhibition of poly(CUG) RNA (unknown origin) splicing expressed in human Hela cells assessed as decrease in toxicity after 24 hrs by WST-1 assay. It counts as cell-based. On the technique in general: Formazan colour is commonly taken as a measure of viable cells.
Experiment [8] is described as follows: Inhibition of poly(CUG) RNA (unknown origin) binding to recombinant N-terminal PL-MBNL1 preincubated for 30 mins followed by protein addition after 1 hr in presence of tRNA by enzyme fragment complementation assay.
Experiment [9] in a line: Binding affinity to Bacillus subtilis ribD RNA FMN riboswitch after 40 to 48 hrs by SDS-PAGE analysis. The conditions noted are these: read-out: Kd(app).
Experiment [10] can be described thus: Binding affinity bacterial RNA purine riboswitch sequence by isothermal titration calorimetry. On the set-up: species or system Bacteria. The conditions noted are these: read-out: Kd(app).

As to `Cc1ncc(C[n+]2cccc(CCO)c2C)c(N)n1`, the Kd in experiment [1] is 20 nM.

Regarding `NCCS(=O)(=O)C[C@H](N)C(=O)O`, the Kd in [2] amounted to 2500 nM.

As for `Cc1ccc(NC(=O)c2c(C)oc3ccc(O)c(CN4CCCCCC4)c23)cc1`, the Kd in experiment [3] turned out to be 4.5 µM.

As a reminder, the Ki is the equilibrium dissociation constant of an inhibitor or competing ligand from its target. Turning to `COc1ccc2nc3cc(Cl)ccc3c(NCCCCNc3nc(N)nc(N)n3)c2c1`, in [4], the Ki was 52 µM.

For orientation: IC50 means the midpoint of a concentration-inhibition curve. The low end stands for inhibition by little substance, the high end for a need for much substance. Take `CC(=O)c1ccc(C(=O)N[C@@H](CCCCN)C(=O)N2C[C@H](N)C[C@H](N)C2)cc1`: in [5], the IC50 stood at 10 µM.

Take `ONc1ncnc2[nH]cnc12`: the Kd in [6] amounted to 20 nM.

Regarding `Nc1cccc(-c2nc3cc(-c4ccc5[nH]c(-c6cccc(N)c6)nc5c4)ccc3[nH]2)c1`, in [7], the Ki came to 50 µM.

As to `CN(C(=O)[C@@H]1CCCN1C(=O)c1ccc2c(c1)OCO2)[C@@H](CS)C(=O)N[C@@H](CCCCN)C(=O)NCCCN`, in experiment [8], the Ki was 3000 nM.

For `Cc1cc2nc3c(=O)[nH]c(=O)nc-3n(C[C@@H](O)[C@@H](O)[C@@H](O)CO)c2cc1N(C)C`, the Kd in [9] is 100 nM.

For `O=C(Nc1ccc(-c2nc3ccccc3[nH]2)cc1)c1ccc(-c2ccc(Cl)cc2)o1`, the inhibition constant (Ki) in [7] came out at 128 µM.

As for `Nc1nc(N)c2nc[nH]c2n1` [2,6-DIAMINOPURINE], in experiment [10], the Kd was determined as 4 nM.
